Patent US20230146455A1, “TREATMENT OF INFLAMMATORY DISEASES WITH PEPTIDES AND PHARMACEUTICAL COMPOSITIONS” (Yuyu Pharma, Inc., priority 2020, published 2023)
Where “and” joins values, the source holds several entries; their conditions need not be identical. Equal values may be shown once. Where a SMILES comes first, the peptide text is derived from it. [ ]: non-standard residue; d: D form. Hyp = O=C(O)[C@@H]1C[C@@H](O)CN1

System: IL-1 beta/IL-1F2
Test: Example 9 Luminex, LPS hPBMCs: IL-1 beta/IL-1F2
Format: cell-based, human
Experimental: Treatment Human PBMCs were pretreated with YY-101, YDE-011 and YDE-043 or reference compound; Xiidra® at various concentration (ranging from 1 nM to 100 uM) for 2 h before stimulation. An equal volume of 0.5% DMSO was used as a vehicle control. Then, the cells were treated with LPS at 5 ug/ml. The supernatants from treated cells were harvested at 24 h and placed in a 96 well for Luminex cytokine & chemokine profiling using a Luminex 200 multiplex assay (Luminex; R&D system, USA).
The main study arm with triplicate wells per group in a 24-well plate: • 1. Blank • 2. PBMC: 0.5% DMSO • 3. PBMC+LPS (5 ug/ml) • 4. PBMC+YY-101 100 uM • 5. PBMC+YY-101 10 uM • 6. PBMC+YY-101 1 uM • 7. PBMC+YY-101 0.1 uM • 8. PBMC+YY-101 0.01 uM • 9. PBMC+LPS (5 ug/ml)+Xiidra®100 uM • 10. PBMC+LPS (5 ug/ml)+Xiidra® 10 uM • 11. PBMC+LPS (5 ug/ml)+Xiidra® 1 uM • 12. PBMC+LPS (5 ug/ml)+Xiidra®0.1 uM • 13. PBMC+LPS (5 ug/ml)+Xiidra®0.01 uM • 14. PBMC+LPS (5 ug/ml)+Xiidra®0.001 uM • 15. PBMC+LPS (5 ug/ml)+YY-101 100 uM • 16. PBMC+LPS (5 ug/ml)+YY-101 10 uM • 17. PBMC+LPS (5 ug/ml)+YY-101 1 uM • 18. PBMC+LPS (5 ug/ml)+YY-101 0.1 uM • 19. PBMC+LPS (5 ug/ml)+YY-101 0.01 uM • 20. PBMC+LPS (5 ug/ml)+YY-101 0.001 uM • 21. PBMC+LPS (5 ug/ml)+YDE-011 100 uM • 22. PBMC+LPS (5 ug/ml)+YDE-011 10 uM • 23. PBMC+LPS (5 ug/ml)+YDE-011 1 uM • 24. PBMC+LPS (5 ug/ml)+YDE-011 0.1 uM • 25. PBMC+LPS (5 ug/ml)+YDE-011 0.01 uM • 26. PBMC+LPS (5 ug/ml)+YDE-011 0.001 uM • 27. PBMC+LPS (5 ug/ml)+YDE-043 100 uM • 28. PBMC+LPS (5 ug/ml)+YDE-043 10 uM • 29. PBMC+LPS (5 ug/ml)+YDE-043 1 uM • 30. PBMC+LPS (5 ug/ml)+YDE-043 0.1 uM • 31. PBMC+LPS (5 ug/ml)+YDE-043 0.01 uM • 32. PBMC+LPS (5 ug/ml)+YDE-043 0.001 uM
Multiplex assay was used to measure 30 cytokines and chemokines. The 1:2, 1:10 and 1:200 diluted cell supernatant and serial dilution of the standard were dispensed into a 96 well plate at 50 ul/well. Then, the pre-mixed cocktail of antibody-coated magnetic beads was dispensed at 50 ul/well and incubated at room temperature for 2 h in a horizontal orbital microplate shaker at 800±500 rpm. The beads were washed using a magnetic device to prevent loss. The biotin-antibody was dispensed in 50 ul of each well and incubated at room temperature for 1 h in a shaker at 800±500 rpm. After washing, streptavidin-PE was added at 50 ul/well and incubated at room temperature for 30 min in a shaker under the same conditions. Finally, after washing, wash buffer (100 ul/well) was added to the plate and incubated in a shaker for 2 min. The Luminex™ 200 setting were set according to the manufacturer's protocol. The data was calculated with a standard five-parameter logistic nonlinear regression analysis of the data (xPonent software 4.2, USA). The levels of cytokine/chemokine are normalized to the live cell counts (1×10^5 cells/mL) and presented as concentrations per mL (pg/mL or ng/mL).

[1] = PBMC + LPS(5 ug/ml) + test article 0.01 uM, single replicates
[2] = PBMC + LPS(5 ug/ml) + test article 0.1 uM, Mean
[3] = PBMC + LPS(5 ug/ml) + test article 0.1 uM, single replicates
[4] = PBMC + LPS(5 ug/ml) + test article 1 uM, Mean
[5] = PBMC + LPS(5 ug/ml) + test article 1 uM, single replicates
[6] = PBMC + LPS(5 ug/ml) + test article 10 uM, Mean
[7] = PBMC + LPS(5 ug/ml) + test article 10 uM, single replicates
[8] = PBMC + LPS(5 ug/ml) + test article 100 uM, Mean
[9] = PBMC + LPS(5 ug/ml) + test article 100 uM, single replicates
[10] = PBMC + test article 0.01 uM, no LPS, Mean
[11] = PBMC + test article 0.01 uM, no LPS, single replicates
[12] = PBMC + test article 0.1 uM, no LPS, Mean
[13] = PBMC + test article 0.1 uM, no LPS, single replicates
[14] = PBMC + test article 1 uM, no LPS, Mean
[15] = PBMC + test article 1 uM, no LPS, single replicates
[16] = PBMC + test article 10 uM, no LPS, Mean
[17] = PBMC + test article 10 uM, no LPS, single replicates
[18] = PBMC + test article 100 uM, no LPS, Mean
[19] = PBMC + test article 100 uM, no LPS, single replicates

CC(C)C[C@H](NC(=O)CNC(=O)[C@H](CC(=O)O)NC(=O)[C@H](CCC(N)=O)NC(=O)CNC(=O)[C@@H]1C[C@@H](O)CN1)C(=O)N[C@@H](C)C(=O)NCC(=O)N1CCC[C@H]1C(=O)N[C@@H](CCCCN)C(=O)O [YY-101] (H-[Hyp]GQDGLAGPK-OH; N-terminus and C-terminus assumed)
Concentration [1]: 8405.7 pg/mL and 8552.3 pg/mL and 8212.4 pg/mL | MFI [1]: 2188.5 and 2227.5 and 2137.0 | conc/live cell [1]: 1313.4 pg/10^5 and 1425.4 pg/10^5 and 1346.3 pg/10^5 | Concentration [2]: 8511.2 pg/mL | MFI [2]: 2216.5 | conc/live cell [2]: 1463.1 pg/10^5 | Concentration [3]: 8266.8 pg/mL and 8740.8 pg/mL and 8526.0 pg/mL | MFI [3]: 2151.5 and 2277.5 and 2220.5 | conc/live cell [3]: 1333.4 pg/10^5 and 1680.9 pg/10^5 and 1375.2 pg/10^5 | Concentration [4]: 7838.4 pg/mL | MFI [4]: 2036.8 | conc/live cell [4]: 1203.9 pg/10^5 | Concentration [5]: 8218.0 pg/mL and 7821.7 pg/mL and 7475.4 pg/mL | MFI [5]: 2138.5 and 2032.5 and 1939.5 | conc/live cell [5]: 1304.4 pg/10^5 and 1101.6 pg/10^5 and 1205.7 pg/10^5 | Concentration [6]: 8659.2 pg/mL | MFI [6]: 2255.8 | conc/live cell [6]: 1311.5 pg/10^5 | Concentration [7]: 8518.5 pg/mL and 8816.3 pg/mL and 8642.7 pg/mL | MFI [7]: 2218.5 and 2297.5 and 2251.5 | conc/live cell [7]: 1419.7 pg/10^5 and 1377.5 pg/10^5 and 1137.2 pg/10^5 | Concentration [8]: 12179.5 pg/mL | MFI [8]: 3163.2 | conc/live cell [8]: 2105.8 pg/10^5 | Concentration [9]: 12944.3 pg/mL and 11783.1 pg/mL and 11811.0 pg/mL | MFI [9]: 3353.5 and 3064.5 and 3071.5 | conc/live cell [9]: 2054.7 pg/10^5 and 1900.5 pg/10^5 and 2362.2 pg/10^5 | Concentration [10]: 5.5 pg/mL | MFI [10]: 2.5 | conc/live cell [10]: 0.6 pg/10^5 | Concentration [11]: 5.5 pg/mL | MFI [11]: 0.5 and 4.5 | conc/live cell [11]: 0.0 pg/10^5 and 1.2 pg/10^5 | MFI [12]: 1.5 | conc/live cell [12]: 0.0 pg/10^5 | MFI [13]: 1.5 | conc/live cell [13]: 0.0 pg/10^5 | MFI [14]: 2.0 | conc/live cell [14]: 0.0 pg/10^5 | MFI [15]: 3.5 and 0.5 | conc/live cell [15]: 0.0 pg/10^5 | Concentration [16]: 122.9 pg/mL | MFI [16]: 13.0 | conc/live cell [16]: 9.6 pg/10^5 | Concentration [17]: 122.9 pg/mL | MFI [17]: 23.5 and 2.5 | conc/live cell [17]: 19.2 pg/10^5 and 0.0 pg/10^5 | Concentration [18]: 159.6 pg/mL | MFI [18]: 31.5 | conc/live cell [18]: 24.7 pg/10^5 | Concentration [19]: 278.4 pg/mL and 40.7 pg/mL | MFI [19]: 53.5 and 9.5 | conc/live cell [19]: 43.5 pg/10^5 and 5.8 pg/10^5 | LPS-induced IL-I3 levels (in words) (at 100.iM, LPS 5 ug/mL 24 hrs): further increased
